From patent US20140322149A1, “COMPOUND USEFUL FOR TREATING CELLULITE” (SIGMA-TAU INDUSTRIE FARMACEUTICHE RIUNITE S.P.A., priority 2008, published 2014) come the findings set out here.

The data set deals with cellulite in the thigh. Put plainly: Anticellulite activity, intradermal multiple injection in the thigh of female subjects. The settings on record: for Irritation reactions: during treatment; for Irritation reactions / Reduction of the fatty layer thickness / Reduction of the thigh diameter / Skin firmness / Skin hydration / Surface smoothness / Subjective improvement: 50.0 mg in 2.5 mL intradermally by multiple injection; for Irritation reactions / Reduction of the fatty layer thickness / Reduction of the thigh diameter / Skin firmness / Skin hydration / Surface smoothness / Subjective improvement / Clinical grading: once per week; for Reduction of the fatty layer thickness / Reduction of the thigh diameter / Skin firmness / Skin hydration / Surface smoothness: end of treatment (week 6) vs base line; for Subjective improvement / Clinical grading: end of treatment (week 6); for Clinical grading: visual grading of degree of cellulite, scale 0-4, 50.0 mg in 2.5 mL intradermally; for Anticellulite activity (overall, in words): comparison among propionyl L-carnitine, acetyl L-carnitine and L-carnitine. Type of data set: in vivo, human. As for the experimental part:
The effectiveness of intradermally administration of the product according to the invention was tested for its ability to reduce the appearance of cellulite in the thigh. A total of 54 female subjects ranging in age from 23 to 58 years of age were selected to evaluate the composition of the invention.
The subjects were selected based on their cellulite intensity in the thigh area having a bi-lateral symmetry. Subjects with grades 1 and 2 cellulite were chosen, as a 5-point grading scale was used to rate the cellulite severity of each subject. The scale ranged from 0 to 4, being 0=No cellulite; 1=Small bumps or depressions; 2=Striations and bumps; 3=Pronounced lumpiness of the skin and striations; 4=All of the above plus hard sub-surface nodules.
All subjects had the absence of any visible skin disease(s) which might be confused with a skin reaction from the test material and were in general good health with no known allergies, especially to cosmetic or toiletry products; had no evidence of acute or chronic disease; were not pregnant or lactating; were not on any diet or weight reduction program; and were not on any regular exercise program (immediately prior to or during the course of the study).
At baseline each subject received a visual examination conducted by a qualified technician and scored for the degree of cellulite. In the same day subjects were treated on the right and left thigh intradermally by multiple injection, (from 5 to 10 injections per thigh using a “Lebel needle” 4 mm×0.4 mm; 27 G). The treatment was repeated once per week for […] (week 0; 1; 2; 3; 4; and 5).
The degree of cellulite was evaluated according to the following scale: 0=No visible cellulite; 1=Very little visible cellulite, no dimpling; 2=Visible cellulite, evidence of shallow dimpling; 3=Easily visible cellulite, moderate to pronounced dimpling; 4=Extremely visible cellulite, heavy and deep dimpling.
The patients were divided in 3 groups and treated intradermally by multiple injection with a composition comprising:
Group A • Propionyl L-Carnitine: 50.0 mg; • Mannitol: 100.0 mg; • Sodium phosphate bibasic bi-hydrate: 24.0 mg; • Trometamine: 8.0 mg; • H2O: 2.5 mL (final volume);
Group B • Acetyl L-Carnitine: 50.0 mg; • Mannitol: 100.0 mg; • Sodium phosphate bibasic bi-hydrate: 24.0 mg; • Trometamine: 8.0 mg; • H2O: 2.5 mL (final volume); or
Group C • L-Carnitine: 50.0 mg; • Mannitol: 100.0 mg; • Sodium phosphate bibasic bi-hydrate: 24.0 mg; • Trometamine: 8.0 mg; • H2O: 2.5 mL (final volume).
Subjects were instructed to discontinue the use of their normal anti-cellulite products to avoid introducing any new products for treating cellulite during the study, and to not be on any diet or weight reduction program or on any regular exercise program immediately prior to or during the course of the study. Each subject was also instructed to keep a diary to document compliance.
After 7 days from the last treatment (week 6) the subjects returned to the hospital for a final visual evaluation.
The cellulite evaluation was made according the method described in Cosmetics & Toiletries, 61-70, June 1995, by comparison of the values before and after the treatment.

In the case of `CCC(=O)O[C@H](CC(=O)[O-])C[N+](C)(C)C` [Propionyl L-carnitine, Propionyl L-Carnitine], the Irritation reactions is 0, the “Reduction of the fatty layer thickness” value is on record as −28%, the “Reduction of the thigh diameter” value is recorded as −11% and the Skin firmness entry is reported as “+20%”. Besides, the Skin hydration result is on record as “+27%”, the Surface smoothness entry was “+42%”, the Subjective improvement entry is “+57%” and the Clinical grading result is “+34%”. Further, for the setting “summary of Table 1”, the “Effect on skin infrastructure (dermis of the skin)” value is recorded as “improved skin infrastructure” and the “Anticellulite activity (overall, in words)” value (shortened to “Anticellulite activity”) is listed as “effectively ameliorate the cellulite condition”. The “Anticellulite activity” value (summary of Table 1, listed as compound of the invention) is given as “significantly higher respect to the activity of L-carnitine or acetyl L-carnitine”.
Turning to `C[N+](C)(C)C[C@H](O)CC(=O)[O-]` [L-carnitine, L-Carnitine], the “Reduction of the fatty layer thickness” value is −12%, the “Reduction of the thigh diameter” value was −3%, the Skin firmness entry is given as “+9%” and the Skin hydration result is reported as “+10%”. Also, the Surface smoothness entry is recorded as “+18%”, the Subjective improvement entry was “+19%” and the Clinical grading result is on record as “+12%”. Moreover, the “Anticellulite activity” value (summary of Table 1) is listed as “inferior compared with that of propionyl L-carnitine”.
For `CC(=O)O[C@H](CC(=O)[O-])C[N+](C)(C)C` [Acetyl L-carnitine, Acetyl L-Carnitine], the Irritation reactions came to 0, the “Reduction of the fatty layer thickness” value is given as −10%, the “Reduction of the thigh diameter” value is given as −2% and the Skin firmness entry is “+6%”. For the same molecule, the Skin hydration entry was “+8%”, the Surface smoothness result is on record as “+15%”, the Subjective improvement result is given as “+15%” and the Clinical grading result is on record as “+8%”. Besides, the “Anticellulite activity” value (summary of Table 1) is “inferior compared with that of propionyl L-carnitine”.
